{
  "source": "patent US11045475B2",
  "about": "“Application of methyl 4-[9-(6-aminopuryl)]-2(s)-hydroxybutyrate in preparation of medicament for treating psoriasis and vitiligo” (SHANGHAI INSTITUTE OF MATERIA MEDICA, CHINESE ACADEMY OF …, priority 2016, dated 2021)",
  "key": {"IL-17": {"test_system": "IL-17", "assay": "IL-17 ELISA of damaged skin extract of imiquimod-induced psoriasis mice", "assay_type": "in vivo, female balb/c mice", "conditions": "after 7 days of ointment treatment, FIG. 3", "from_the_text": "FIG. 3 illustrates the inhibition of IL-17 level in psoriatic lesions induced by imiquimod with methyl 4-[9-(6-aminopuryl)]-2(s)-hydroxybutyrate in mice. Skin of the lesions is taken on Day 7 of imiquimod-induced psoriasis modeling, and its IL-17 content is detected by ELISA. *P<0.05, n≥5. The groups in FIG. 3 are the normal control group, model control group and ointment treatment group.\nConstruction of animal models with psoriasis: normal control group, model control group, calcipotriol ointment control group, ointment treatment group, n=10/group. […]\n(§1) Treatment: dorsal skin of the mice of the normal control group and model control group was applied with ointment base of 62.5 mg from Example 1 every day, and the dorsal skin of the mice of calcipotriol control group was applied with Calcipotriol Ointment of 62.5 mg every day, and the dorsal skin of the mice of ointment treatment group was applied with methyl 4-[9-(6-aminopuryl)]-2(s)-hydroxybutyrate ointment of 62.5 mg. […] Based on PASI score system, the erythema (FIG. 1A), scales (FIG. 1B) and skin thickening (FIG. 1C) of the dorsal skin were scored (0-4). […]\nThe mice were weighed when the psoriasis was more serious after 7 days of treatment; the mice were sacrificed, and the spleens of each group were removed and weighed. […] Inflammatory factor (IL-17) of the extract was detected by ELISA (FIG. 3)."}, "[1]": {"test_system": "T lymphocyte activation in spleen", "assay": "Flow cytometry of naive and active T cells in spleen lymphocytes of imiquimod-induced psoriasis mice", "assay_type": "in vivo, female balb/c mice", "conditions": "after 7 days of ointment treatment, FIG. 2C-2E", "from_the_text": "(§2) FIG. 2 illustrates the inhibition of spleen swelling and T lymphocyte activation in spleen induced by imiquimod with methyl 4-[9-(6-aminopuryl)]-2(s)-hydroxybutyrate in mice. Mice models are weighed (FIG. 2A) and euthanized on Day 7 of imiquimod-induced psoriasis modeling, and spleens of the mice were weighed to calculate spleen index (FIG. 2B); naive T cells (CD3^+CD4^+CD44^−CD62L^+) ratio (FIG. 2C, 2D), and active T cells (CD3^+CD4^+CD44^+CD62L^−) ratio (FIG. 2C, 2E) are detected. *P<0.05, ***P<0.001, n≥5. The groups in FIG. 2 are the normal control group, model control group and ointment treatment group. FIG. 2C is for CD3^+CD4^+ T cells, and FIGS. 2D and 2E show the ratio of CD3^+CD4^+ T cells in all spleen lymphocytes. […]\nas §1"}, "[2]": {"test_system": "systemic lupus erythematosus (SLE)", "conditions": "animal models, background statement; cited from earlier work"}, "[3]": {"molecular_target": "S-adenosyl-L-homocysteine hydrolase (SAHH) (Homo sapiens, UniProt P23526)", "sequence (P23526 whole entry, species assumed)": "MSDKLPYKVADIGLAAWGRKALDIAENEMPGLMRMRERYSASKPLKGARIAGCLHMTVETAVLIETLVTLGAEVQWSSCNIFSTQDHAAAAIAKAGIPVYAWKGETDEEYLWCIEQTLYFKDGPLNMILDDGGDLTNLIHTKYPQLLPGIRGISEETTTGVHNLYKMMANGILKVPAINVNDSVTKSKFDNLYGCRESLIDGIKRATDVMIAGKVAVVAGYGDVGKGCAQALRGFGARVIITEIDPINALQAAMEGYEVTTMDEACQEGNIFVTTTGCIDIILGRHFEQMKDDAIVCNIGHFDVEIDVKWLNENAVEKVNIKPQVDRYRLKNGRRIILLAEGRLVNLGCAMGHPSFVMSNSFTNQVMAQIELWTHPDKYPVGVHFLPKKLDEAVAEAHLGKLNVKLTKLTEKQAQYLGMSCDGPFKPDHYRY", "conditions": "background statement; cited from earlier work"}, "cells": {"test_system": "cells", "conditions": "background statement; cited from earlier work"}, "[4]": {"test_system": "psoriasis induced by imiquimod in mice", "assay": "Imiquimod-induced psoriasis in mice, ointment treatment, PASI scoring and skin lesion photographs", "assay_type": "in vivo, female balb/c mice", "conditions": "62.5 mg ointment (0.2 g per 10 g) on dorsal skin every day, observed over 15 days, FIG. 1", "from_the_text": "Testing materials: the ointment base from Example 1; the methyl 4-[9-(6-aminopuryl)]-2(s)-hydroxybutyrate ointment from Example 2, and per 10 g of the ointment contains 0.2 g of methyl 4-[9-(6-aminopuryl)]-2(s)-hydroxybutyrate.\nModeling drug: Imiquimod Cream produced by SICHUAN MED-SHINE PHARMACEUTICAL CO., LTD.; SDA (State Drugs Administration) License No.: GUOYAOZHUNZI H20030128; Lot No.: 15060139.\nPositive control drug: Calcipotriol Ointment produced by CHONGQING HUAPONT PHARM CO., LTD., SDA (State Drugs Administration) License No.: GUOYAOZHUNZI H20113541; Lot No.: 2015002.\nExperimental animals: female balb/c mice with body weight of 18-22 g, provided by SHANGHAI SLAC LABORATORY ANIMAL CO., LTD. […]\nas §1"}, "[5]": {"test_system": "experimental autoimmune encephalomyelitis (EAE)", "conditions": "animal models, background statement; cited from earlier work"}, "spleen swelling": {"test_system": "spleen swelling", "assay": "Spleen weight / spleen index in imiquimod-induced psoriasis mice", "assay_type": "in vivo, female balb/c mice", "conditions": "after 7 days of ointment treatment, FIG. 2A, 2B", "from_the_text": "as §2, §1"}},
  "data": [
    {"compound": "COC(=O)C(O)CCn1cnc2c(N)ncnc21", "note": "(centres unmarked) [methyl 4-[9-(6-aminopuryl)]-2(s)-hydroxybutyrate]", "values": [
      {"measurement": "level of IL-17 in the damaged skin", "setting": "IL-17", "result": "inhibited the level of IL-17 in the damaged skin"},
      {"measurement": "T lymphocyte activation (ratio of naive and active T cells in spleen lymphocytes)", "setting": "[1]", "result": "inhibited T lymphocyte activation in mice with psoriasis induced by imiquimod"},
      {"measurement": "therapeutic effect on SLE", "setting": "[2]", "result": "good therapeutic effect"},
      {"measurement": "type of SAHH inhibition", "setting": "[3]", "result": "type III inhibitor of SAHH"},
      {"measurement": "cytotoxicity", "setting": "cells", "result": "low cytotoxicity"},
      {"measurement": "PASI scores of erythema, scales, skin thickening and total score of skin lesion severity", "setting": "[4]", "result": "relieved psoriasis induced by imiquimod in mice effectively"},
      {"measurement": "therapeutic effect on EAE", "setting": "[5]", "result": "good therapeutic effect"},
      {"measurement": "spleen swelling (spleen index)", "setting": "spleen swelling", "result": "improved spleen swelling in mice with psoriasis induced by imiquimod significantly"}
    ]}
  ]
}
